Target: human Autotaxin protein (Homo sapiens, UniProt Q13822)
Assay: Evaluation of the inhibitory activity against human Autotaxin protein (18:1 LysoPC substrate, choline assay kit, absorbance at 570 nm)
Assay type: biochemical
Conditions: at 500nM compound, 2 hours at 37 °C, read-out: Inhibition rate (%, at 500nM)
Experimental: Solutions of each synthesized compound (80 uM, 100% dimethyl sulfoxide) were sequentially diluted 5-fold with dimethyl sulfoxide to prepare 6 concentrations. Each concentration of the compound was diluted 2-fold with 1x test buffer (50 mM Tris-Cl (pH 8.0), 5 mM KCl, 1 mM CaCl2, 1 mM MgCl2, 140 mM NaCl, deionized water, 1 mg/mL BSA), and 1 uL (1.25% dimethylsulfoxide) of the diluted mixture was dispensed into each well of a 96-well clear round-bottom plate. 9 uL of 1x test buffer was added, and 20 uL of 240 nM human autotaxin protein (buffer: 50 mM Tris-HCl, pH 8.0, with 150 mM sodium chloride and 20% glycerol) was added. 10 uL of sonicated 360 uM 18:1 LysoPC (diluted with 1x assay buffer) was added. The reaction was performed for 2 hours in a shaking incubator at 37 °C, and a secondary reaction mixture (choline assay kit, KA1662) (65 uL of 1x assay buffer: 1 uL of choline oxidase: 1 uL of dye probe) was prepared. 60 uL of the secondary reaction mixture was added to the plate where the reaction was performed, and incubated for 30 minutes in a shaker. The absorbance value was measured at a wavelength of 570 nm using a SpectraMax iD3 microplate reader. The percentage inhibition activity value (% inhibition) was calculated by the formula: (1 - absorbance value test group / absorbance value control group) X 100.

Row | SMILES | inhibition at 0.5 µM [%]
1 | FC(F)(F)c1ccc(CCNc2ncc(-c3nnc(N4C[C@@H]5[C@H](C4)[C@H]5c4cnn[nH]4)o3)cn2)cc1 [Example 26, 5-(5-((1R,5S,6r)-6-(1H-1,2,3-Triazol-5-yl)-3-azabicyclo[3.1.0]hexan-3-yl)-1,3,4-oxadiazol-2-yl)-N-(4-(trifluoromethyl)phenethyl)pyrimidin-2-amine] | 98.4
2 | Brc1ccc(CCNc2ncc(-c3nnc(N4C[C@@H]5[C@H](C4)[C@H]5c4cnn[nH]4)o3)cn2)cc1 [Example 27, 5-(5-((1R,58,6r)-6-(1H-1,2,3-Triazol-5-yl)-3-azabicyclo[3.1.0]hexan-3-yl)-1,3,4-oxadiazol-2-yl)-N-(4-bromophenethyl)pyrimidin-2-amine] | 98.6
3 | Clc1ccccc1CCNc1ncc(-c2nnc(N3C[C@@H]4[C@H](C3)[C@H]4c3cnn[nH]3)o2)cn1 [Example 28, 5-(5-((1R,5S,6r)-6-(1H-1,2,3-Triazol-5-yl)-3-azabicyclo[3.1.0]hexan-3-yl)-1,3,4-oxadiazol-2-yl)-N-(2-chlorophenethyl)pyrimidin-2-amine] | 96.4
4 | Clc1cc(Cl)cc(CCNc2ncc(-c3nnc(N4C[C@@H]5[C@H](C4)[C@H]5c4cnn[nH]4)o3)cn2)c1 [Example 29, 5-(5-((1R,5S,6r)-6-(1H-1,2,3-Triazol-5-yl)-3-azabicyclo[3.1.0]hexan-3-yl)-1,3,4-oxadiazol-2-yl)-N-(3,5-dichlorophenethyl)pyrimidin-2-amine] | 97
5 | COc1ccc(CCNc2ncc(-c3nnc(N4C[C@@H]5[C@H](C4)[C@H]5c4cnn[nH]4)o3)cn2)cc1 [Example 30, 5-(5-((1R,5S,6r)-6-(1H-1,2,3-Triazol-5-yl)-3-azabicyclo[3.1.0]hexan-3-yl)-1,3,4-oxadiazol-2-yl)-N-(4-methoxyphenethyl)pyrimidin-2-amine] | 95.7
6 | Cc1ccc(CCNc2ncc(-c3nnc(N4C[C@@H]5[C@H](C4)[C@H]5c4cnn[nH]4)o3)cn2)cc1 [Example 31, 5-(5-((1R,5S,6r)-6-(1H-1,2,3-Triazol-5-yl)-3-azabicyclo[3.1.0]hexan-3-yl)-1,3,4-oxadiazol-2-yl)-N-(4-methylphenethyl)pyrimidin-2-amine] | 97
7 | c1ccc(CCNc2ncc(-c3nnc(N4C[C@@H]5[C@H](C4)[C@H]5c4cnn[nH]4)o3)cn2)nc1 [Example 32, 5-(5-((1R,5S,6r)-6-(1H-1,2,3-Triazol-5-yl)-3-azabicyclo[3.1.0]hexan-3-yl)-1,3,4-oxadiazol-2-yl)-N-(2-(pyridin-2-yl)ethyl)pyrimidin-2-amine] | 48.7
8 | N#Cc1ccc(CCNc2ncc(-c3nnc(N4C[C@@H]5[C@H](C4)[C@H]5c4cnn[nH]4)o3)cn2)cc1 [Example 33, 4-(2-((5-(5-((1R,5S,6r)-6-(1H-1,2,3-Triazol-5-yl)-3-azabicyclo[3.1.0]hexan-3-yl)-1,3,4-oxadiazol-2-yl)pyrimidin-2-yl)amino)ethyl)benzonitrile] | 93.7
9 | c1ccc2c(c1)CC[C@H]2Nc1ncc(-c2nnc(N3C[C@@H]4[C@H](C3)[C@H]4c3cnn[nH]3)o2)cn1 [Example 34, 5-(5-((1R,5S,6R)-6-(1H-1,2,3-Triazol-5-yl)-3-azabicyclo[3.1.0]hexan-3-yl)-1,3,4-oxadiazol-2-yl)-N-((R)-2,3-dihydro-1H-inden-1-yl)pyrimidin-2-amine] | 90.8
10 | c1ccc2c(c1)CC[C@@H]2Nc1ncc(-c2nnc(N3C[C@@H]4[C@H](C3)[C@H]4c3cnn[nH]3)o2)cn1 [Example 35, 5-(5-((1R,5S,6S)-6-(1H-1,2,3-Triazol-5-yl)-3-azabicyclo[3.1.0]hexan-3-yl)-1,3,4-oxadiazol-2-yl)-N-((S)-2,3-dihydro-1H-inden-1-yl)pyrimidin-2-amine] | 96.8
11 | c1ccc(Nc2ncc(-c3nnc(N4C[C@@H]5[C@H](C4)[C@H]5c4cnn[nH]4)o3)cn2)cc1 [Example 36, 5-(5-((1R,5S,6r)-6-(1H-1,2,3-Triazol-5-yl)-3-azabicyclo[3.1.0]hexan-3-yl)-1,3,4-oxadiazol-2-yl)-N-phenylpyrimidin-2-amine] | 65.2
12 | CN(CCc1ccc(Cl)cc1)c1ncc(-c2nnc(N3C[C@@H]4[C@H](C3)[C@H]4c3cnn[nH]3)o2)cn1 [Example 37, 5-(5-((1R,5S,6r)-6-(1H-1,2,3-Triazol-5-yl)-3-azabicyclo[3.1.0]hexan-3-yl)-1,3,4-oxadiazol-2-yl)-N-(4-chlorophenethyl)-N-methylpyrimidin-2-amine] | 91.7
13 | O=C(CCCc1nnc(NC2Cc3ccccc3C2)s1)N1C[C@@H]2[C@H](C1)[C@H]2c1cnn[nH]1 [Example 38, 1-((1R,5S,6r)-6-(1H-1,2,3-Triazol-5-yl)-3-azabicyclo[3.1.0]hexan-3-yl)-4-(5-((2,3-dihydro-1H-inden-2-yl)amino)-1,3,4-thiadiazol-2-yl)butan-1-one] | 25.5
14 | O=C(CCc1nnc(NC2Cc3ccccc3C2)s1)N1C[C@@H]2[C@H](C1)[C@H]2c1cnn[nH]1 [Example 39, 1-((1R,5S,6r)-6-(1H-1,2,3-Triazol-5-yl)-3-azabicyclo[3.1.0]hexan-3-yl)-3-(5-((2,3-dihydro-1H-inden-2-yl)amino)-1,3,4-thiadiazol-2-yl)propan-1-one] | 59.7
15 | Cc1nc(NCCc2ccc(Cl)cc2)ncc1-c1nnc(N2C[C@@H]3[C@H](C2)[C@H]3c2cnn[nH]2)o1 [Example 40, 5-(5-((1R,5S,6r)-6-(1H-1,2,3-Triazol-5-yl)-3-azabicyclo[3.1.0]hexan-3-yl)-1,3,4-oxadiazol-2-yl)-N-(4-chlorophenethyl)-4-methylpyrimidin-2-amine] | 92.3
16 | Clc1ccc(CCNc2ccc(-c3nnc(N4C[C@@H]5[C@H](C4)[C@H]5c4cnn[nH]4)o3)cn2)cc1 [Example 41, 5-(5-((1R,5S,6r)-6-(1H-1,2,3-Triazol-5-yl)-3-azabicyclo[3.1.0]hexan-3-yl)-1,3,4-oxadiazol-2-yl)-N-(4-chlorophenethyl)pyridin-2-amine] | 95.8
17 | Clc1ccc(CCNc2cnc(-c3nnc(N4C[C@@H]5[C@H](C4)[C@H]5c4cnn[nH]4)o3)cn2)cc1 [Example 42, 5-(5-((1R,5S,6r)-6-(1H-1,2,3-Triazol-5-yl)-3-azabicyclo[3.1.0]hexan-3-yl)-1,3,4-oxadiazol-2-yl)-N-(4-chlorophenethyl)pyrazin-2-amine] | 68.4
18 | O=C(CCc1cnc(NCCc2ccc(Cl)cc2)nc1)N1C[C@@H]2[C@H](C1)[C@H]2c1cnn[nH]1 [Example 43, 1-((1R,5S,6r)-6-(1H-1,2,3-Triazol-5-yl)-3-azabicyclo[3.1.0]hexan-3-yl)-3-(2-((4-chlorophenethyl)amino)pyrimidin-5-yl)propan-1-one] | 84.8
19 | O=C(CCCc1cnc(NCc2cc(Cl)cc(Cl)c2)nc1)N1C[C@@H]2[C@H](C1)[C@H]2c1cnn[nH]1 [Example 44, 1-((1R,5S,6r)-6-(1H-1,2,3-Triazol-5-yl)-3-azabicyclo[3.1.0]hexan-3-yl)-4-(2-((3,5-dichlorobenzyl)amino)pyrimidin-5-yl)butan-1-one] | 58.6
20 | O=C(/C=C/c1cnc(NCCc2ccc(Cl)cc2)nc1)N1C[C@@H]2[C@H](C1)[C@H]2c1cnn[nH]1 [Example 45, (E)-1-((1R,5S,6r)-6-(1H-1,2,3-Triazol-5-yl)-3-azabicyclo[3.1.0]hexan-3-yl)-3-(2-((4-chlorophenethyl)amino)pyrimidin-5-yl)prop-2-en-1-one] | 98.7
21 | O=C(/C=C/c1cnc(NC2Cc3ccccc3C2)nc1)N1C[C@@H]2[C@H](C1)[C@H]2c1cnn[nH]1 [Example 46, (E)-1-((1R,5S,6r)-6-(1H-1,2,3-Triazol-5-yl)-3-azabicyclo[3.1.0]hexan-3-yl)-3-(2-((2,3-dihydro-1H-inden-2-yl)amino)pyrimidin-5-yl)prop-2-en-1-one] | 99.4
22 | Cn1nncc1[C@H]1[C@@H]2CN(c3nnc(-c4cnc(NCCc5ccc(Cl)cc5)nc4)o3)C[C@@H]21 [Example 47, N-(4-Chlorophenethyl)-5-(5-((1R,5S,6r)-6-(1-methyl-1H-1,2,3-triazol-5-yl)-3-azabicyclo[3.1.0]hexan-3-yl)-1,3,4-oxadiazol-2-yl)pyrimidin-2-amine] | 13.9
23 | Cc1nn[nH]c1[C@H]1[C@@H]2CN(c3nnc(-c4cnc(NCCc5ccc(Cl)cc5)nc4)o3)C[C@@H]21 [Example 48, N-(4-Chlorophenethyl)-5-(5-((1R,5S,6r)-6-(4-methyl-1H-1,2,3-triazol-5-yl)-3-azabicyclo[3.1.0]hexan-3-yl)-1,3,4-oxadiazol-2-yl)pyrimidin-2-amine] | 34.7
24 | Clc1ccc(CCNc2ncc(C3CC(N4C[C@@H]5[C@H](C4)[C@H]5c4cnn[nH]4)=NO3)cn2)cc1 (stereo partly drawn) [Example 49, 5-(3-((1R,5S,6r)-6-(1H-1,2,3-Triazol-5-yl)-3-azabicyclo[3.1.0]hexan-3-yl)-4,5-dihydroisoxazol-5-yl)-N-(4-chlorophenethyl)pyrimidin-2-amine] | 76.4
25 | c1ccc2c(c1)CC(Nc1ncc(C3CC(N4C[C@@H]5[C@H](C4)[C@H]5c4cnn[nH]4)=NO3)cn1)C2 (stereo partly drawn) [Example 50, 5-(3-((1R,5S,6r)-6-(1H-1,2,3-Triazol-5-yl)-3-azabicyclo[3.1.0]hexan-3-yl)-4,5-dihydroisoxazol-5-yl)-N-(2,3-dihydro-1H-inden-2-yl)pyrimidin-2-amine] | 95.5

— patent EP4692083A1, “NOVEL AZABICYCLE DERIVATIVES AND PHARMACEUTICAL COMPOSITION FOR INHIBITING AUTOTAXIN, COMPRISING SAME” (Nextgen Bioscience Co., Ltd., priority 2023, dated 2024)
